Results: paper PMC11098091 (Nature chemical biology, 2022)

How the values were obtained:
[1] = target: human μOR (Gz) (Homo sapiens, UniProt P35372); assay type: cell-based; conditions: read-out: potency at Gz
[2] = target: human μOR (GoB) (Homo sapiens, UniProt P35372); assay type: cell-based; conditions: read-out: potency at GoB
[3] = target: human μOR (Homo sapiens, UniProt P35372); assay type: cell-based
[4] = target: human μOR (β-arrestin-1, β-arrestin-2) (Homo sapiens, UniProt P35372); assay type: cell-based
[5] = target: T1, μOR Y326^7.43F mutant (Homo sapiens, UniProt P35372, Y328F); assay type: cell-based
[6] = target: T1, μOR Y326^7.43F mutant; assay type: cell-based; remark: listed apart in the source
[7] = target: T2, μOR Q124^2.60A mutant (Homo sapiens, UniProt P35372, Q126A); assay type: cell-based
[8] = target: T2, μOR Q124^2.60A mutant; assay type: cell-based; remark: listed apart in the source
[9] = target: T3, wild type human μOR (Homo sapiens, UniProt P35372); assay type: cell-based
[10] = target: T3, wild type human μOR; assay type: cell-based; remark: listed apart in the source
[11] = system: mice; conditions: mouse, in vivo; cited from earlier work

T1 sequence (P35372 whole entry Y328F): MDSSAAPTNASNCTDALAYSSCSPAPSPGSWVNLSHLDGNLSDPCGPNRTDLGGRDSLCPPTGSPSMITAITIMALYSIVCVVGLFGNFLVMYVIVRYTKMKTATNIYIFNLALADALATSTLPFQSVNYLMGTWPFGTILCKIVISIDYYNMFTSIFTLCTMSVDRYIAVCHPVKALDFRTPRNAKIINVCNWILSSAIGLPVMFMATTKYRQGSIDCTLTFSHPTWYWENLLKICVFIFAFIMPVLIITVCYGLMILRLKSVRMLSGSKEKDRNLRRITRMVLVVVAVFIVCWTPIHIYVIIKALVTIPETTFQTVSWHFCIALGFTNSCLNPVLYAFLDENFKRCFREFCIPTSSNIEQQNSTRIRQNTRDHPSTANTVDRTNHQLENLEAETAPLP
T3 sequence (P35372 whole entry): as the sequence (P35372 whole entry Y328F) above, with F328Y counted along it
human μOR, sequence (P35372 whole entry): as the sequence (P35372 whole entry Y328F) above, with F328Y counted along it
T2 sequence (P35372 whole entry Q126A): as the sequence (P35372 whole entry Y328F) above, with Q126A, F328Y counted along it
human μOR (GoB), sequence (P35372 whole entry): as the sequence (P35372 whole entry Y328F) above, with F328Y counted along it
human μOR (Gz), sequence (P35372 whole entry): as the sequence (P35372 whole entry Y328F) above, with F328Y counted along it
human μOR (β-arrestin-1, β-arrestin-2), sequence (P35372 whole entry): as the sequence (P35372 whole entry Y328F) above, with F328Y counted along it

SMILES: CC[C@@H]1CN2CC[C@]3(Nc4cccc(OC)c4C3=O)[C@@H]2C[C@@H]1/C(=C\OC)C(=O)OC [MP, Mitragynine pseudoindoxyl]
- EC50 [1]: 0.9 nM
- EC50 [2]: 3.2 nM
- efficacy at Gi/o/z subtypes compared to DAMGO [3]: partial agonist
- potency spread across G protein subtypes [3]: ~ 3 fold
- recruitment of β-arrestins [4]: no detectable recruitment
- reduction of maximal β-arrestin 2 recruitment by the Y326F mutation [5]: eliminated detectable
- reduction of maximal Gi1 activation by the Y326F mutation [6]: 68%
- reduction of maximal Gi response by the Q124A mutation [7]: more than half
- arrestin recruitment at the Q124A mutant [8]: completely abolishes
- potency in G protein dissociation assays [9]: as potent as DAMGO
- recruitment of β-arrestins [10]: very little detectable activity
- development of antinociceptive tolerance [11]: much more slowly
- potency relative to morphine [11]: approximately ten-fold more potent
- respiratory depression [11]: did not cause respiratory depression
